Results reported in US10071112B2, “Vitamin E-nucleoside prodrugs” (EPIGENETICS PHARMA LLC, priority 2014, dated 2018).
pIC50: −log10 of the molar value. Counter-ions that a name gives are not always drawn. Like-named read-outs stand apart in the source and are kept apart here.

How the values were obtained:
[1] = blank human plasma matrix, room temperature, at least 4 hours; cited from earlier work
MDA-MB-231 = assay: In vitro cytotoxicity / growth inhibition, SRB assay, 72 hr, breast cancer cells; assay type: cell-based; conditions: for pIC50: Table 2; for GI50: 72 hr
Method: (§1) In general, growth inhibitory effects of gemcitabine and prodrugs were evaluated in breast (MDA), lung (H460) and colon (H116) cancer cell lines by seeding the cell lines in 96-wells plates and exposing the cells to various drug concentrations for 72 hr. Standard sulforhodamine B (SRB) assay was then performed.

NCI-H460 = assay: In vitro cytotoxicity / growth inhibition, SRB assay, 72 hr, non-small cell lung cancer cells; assay type: cell-based; conditions: for pIC50: Table 2; for GI50: 72 hr
Method: as §1

HCT-116 = assay: In vitro cytotoxicity / growth inhibition, SRB assay, 72 hr, colon cancer cells; assay type: cell-based; conditions: for pIC50: Table 2, HCT-116; for GI50: 72 hr
Method: as §1

CEM WT = assay: Activity in wild type leukemic CEM cells; assay type: cell-based; conditions: for pIC50: Homo sapiens, CCRF-CEM, CEM WT (dCK wild type) cells
Method: (§2) To further confirm that tocopherol/tocotrienol-modified drugs are imported as intact molecules and then dissociate intracellularly into monophosphorylated nucleoside and carrier, i.e., tocopherol/tocotrienol, Compound 2 was tested for activity against gemcitabine in wild type (WT) leukemic CEM cells and CEM cells without deoxycytidine kinase (dCK). In the absence of dCK, gemcitabine is not phosphorylated to gemcitabine monophosphate a precursor to the therapeutically active di- and triphosphates.

CEM dCK(—) = assay: Activity in CEM cells without deoxycytidine kinase; assay type: cell-based; conditions: for increase of IC50 from dCK WT cells to dCK (−) cells: CEM dCK(−) vs CEM WT; for pIC50: Homo sapiens, CCRF-CEM, CEM dCK(—) cells
Method: as §2

[2] = Aqueous solubility determination; assay type: physicochemical
Source text: In addition, chromatographic purity (%) was defined as the peak area of the principal peak relative to the total integrated peak area in the HPLC chromatogram of the calibration standard. A chromatogram of the calibration standard of each test compound, along with a UV/VIS spectrum with labeled absorbance maxima, was generated.

[3] = Intrinsic clearance / metabolic stability in liver microsomes; assay type: in vitro ADME; conditions: human liver microsomes
Method: Metabolic stability, expressed as percent of the parent compound remaining, was calculated by comparing the peak area of the compound at the time point relative to that at time-0. The half-life (T1/2) was estimated from the slope of the initial linear range of the logarithmic curve of compound remaining (%) vs. time, assuming the first-order kinetics. The apparent intrinsic clearance (CLint, in μL/min/pmol, μL/min/mg or μL/min/Mcell) was calculated according to the following formula: CLint=[…](mg protein/μL or million cells/μL or pmol CYP isozyme/μL)

pancreatic cancer = conditions: clinical trials, patients with pancreatic cancer; cited from earlier work
[4] = Homo sapiens, MDA-MB-231, absence of dipyridamole (control), read-out: GI50 SRB, MDA Breast
[5] = Homo sapiens, MDA-MB-231, presence of 1 μM dipyridamole, read-out: GI50 SRB, MDA Breast, dipyridamole
[6] = Homo sapiens, NCI-H460, absence of dipyridamole (control), read-out: GI50 SRB, H460 Lung
[7] = Homo sapiens, NCI-H460, presence of 1 μM dipyridamole, read-out: GI50 SRB, H460 Lung, dipyridamole
[8] = Homo sapiens, absence of dipyridamole (control), read-out: GI50 SRB, H116 Colon
[9] = Homo sapiens, presence of 1 μM dipyridamole, read-out: GI50 SRB, H116 Colon, dipyridamole

In the case of `CCCCCCCC/C=C/CCCCCCCC(=O)OC[C@H]1O[C@@H](n2cnc(N)nc2=O)[C@H](O)[C@@H]1O` [5-azacytidine elaidic acid ester], the “percent of the initial amount remaining” value [1] is given as 94%.
Compound `Cc1c(C)c2c(c(C)c1OP(=O)(O)OC[C@H]1O[C@@H](n3ccc(N)nc3=O)C(F)(F)[C@@H]1O)CC[C@@](C)(CCC[C@H](C)CCC[C@H](C)CCCC(C)C)O2` [Compound 1, D-α-tocopheryl phosphate-5′-gemcitabine, triethylammonium salt] has a pIC50 (MDA-MB-231; Homo sapiens, MDA-MB-231) of 4.64, a pIC50 (NCI-H460; Homo sapiens, NCI-H460) of 4.62 and a pIC50 (HCT-116; Homo sapiens) of 4.58.
For `Cc1cc(OP(=O)(O)OC[C@H]2O[C@@H](n3ccc(N)nc3=O)C(F)(F)C2O)cc2c1O[C@](C)(CCC[C@H](C)CCC[C@H](C)CCCC(C)C)CC2` (stereo partly drawn) [Compound 2, D-δ-tocopheryl phosphate-5′-gemcitabine, triethylammonium salt], the GI50 (MDA-MB-231; [4]) was 17.2 µM, the GI50 (MDA-MB-231; [5]) was 23.3 µM and the pIC50 (MDA-MB-231; Homo sapiens, MDA-MB-231) was 5.29. The GI50 (NCI-H460; [6]) was 2.14 µM, the GI50 (NCI-H460; [7]) was 1.47 µM and the pIC50 (NCI-H460; Homo sapiens, NCI-H460) was 5.77. The pIC50 (HCT-116; Homo sapiens) was 5.44, the GI50 (HCT-116; [8]) was 3.07 µM and the GI50 (HCT-116; [9]) was 6.74 µM. For the same compound, the pIC50 (CEM WT) was 6.23, the “increase of IC50 from dCK WT cells to dCK (−) cells” value (CEM dCK(—)) was 32.5 fold and the pIC50 (CEM dCK(—)) was 4.72. For the same compound, the “fold by which IC50 of Compound 2 was lower than gemcitabine” value (CEM dCK(—); dCK (−) cells) was 6.5 fold, the solubility ([2]; PBS buffer, aqueous buffer, PBS (pH 7.4), read-out: aqueous solubility in PBS) was greater than 10000 µg/mL and the solubility ([2]; simulated intestinal fluid, fassgf or other biorelevant, read-out: aqueous solubility in simulated intestinal fluid) was greater than 200 µM. For the same compound, the intrinsic clearance half-life [3] was “greater than 60 minutes”.
`CC(C)=CCC/C(C)=C/CC/C(C)=C/CCC1(C)CCc2cc(OP(=O)(O)OC[C@H]3O[C@@H](n4ccc(N)nc4=O)C(F)(F)[C@@H]3O)c(C)c(C)c2O1` (stereo partly drawn) [Compound 3, D-γ-tocotrienyl phosphate-5′-gemcitabine, triethylammonium salt] gave a pIC50 (MDA-MB-231; MDA-MB-231) of 5.31, a GI50 (MDA-MB-231; absence of dipyridamole (control), read-out: GI50 SRB, MDA Breast) of 30.3 µM and a GI50 (MDA-MB-231; presence of 1 μM dipyridamole, read-out: GI50 SRB, MDA Breast, dipyridamole) of 27.8 µM. For the same compound, the pIC50 (NCI-H460; NCI-H460) was 5.32, the GI50 (NCI-H460; absence of dipyridamole (control), read-out: GI50 SRB, H460 Lung) was 7.16 µM and the GI50 (NCI-H460; presence of 1 μM dipyridamole, read-out: GI50 SRB, H460 Lung, dipyridamole) was 16 µM. The pIC50 (HCT-116) was 5.40, the GI50 (HCT-116; absence of dipyridamole (control), read-out: GI50 SRB, H116 Colon) was 5.55 µM and the GI50 (HCT-116; presence of 1 μM dipyridamole, read-out: GI50 SRB, H116 Colon, dipyridamole) was 12.6 µM.
Work on `Nc1ccn([C@@H]2O[C@H](CO)[C@@H](O)C2(F)F)c(=O)n1` [Gemcitabine, reference compound] yielded a GI50 (MDA-MB-231; [4]) of 3.08 µM, a GI50 (MDA-MB-231; [5]) of 56.8 µM and a pIC50 (MDA-MB-231; Homo sapiens, MDA-MB-231) of 6.96. The GI50 (NCI-H460; [6]) was 0.02 µM, the GI50 (NCI-H460; [7]) was 0.82 µM and the pIC50 (NCI-H460; Homo sapiens, NCI-H460) was 7.70. For the same compound, the pIC50 (HCT-116; Homo sapiens) was 8.00, the GI50 (HCT-116; [8]) was 0.03 µM and the GI50 (HCT-116; [9]) was 2.39 µM. The pIC50 (CEM WT) was 8.70, the “fold by which IC50 of gemcitabine was lower than Compound 2” value (CEM WT; dCK WT cells) was 295 fold and the “increase of IC50 from dCK WT cells to dCK (−) cells” value (CEM dCK(—)) was 62,250 fold. For the same compound, the pIC50 (CEM dCK(—)) was 3.90.
In the case of `CCCCCCCC/C=C/CCCCCCCC(=O)OC[C@H]1O[C@@H](n2ccc(N)nc2=O)C(F)(F)[C@@H]1O` [elaidic acid prodrug], the survival versus gemcitabine (pancreatic cancer) is given as “did not show any difference in survival”.
In the case of `CC(C)=CCC/C(C)=C/CC/C(C)=C/CCC1(C)CCc2cc(OP(=O)(O)O)c(C)c(C)c2O1` (stereo not shown) [γ-tocotrienyl phosphate, reference compound], the pIC50 (MDA-MB-231; MDA-MB-231) was 4.58, the pIC50 (NCI-H460; NCI-H460) was 4.16 and the pIC50 (HCT-116) was 4.25.
With “α-tocopheryl phosphate [reference compound]” the pIC50 (MDA-MB-231; MDA-MB-231) was 4.63, the pIC50 (NCI-H460; NCI-H460) was 4.28 and the pIC50 (HCT-116) was 4.33.
“δ-tocopheryl phosphate [reference compound]” showed a pIC50 (MDA-MB-231; MDA-MB-231) of 4.53, a pIC50 (NCI-H460; NCI-H460) of 4.16 and a pIC50 (HCT-116) of 4.15.
